Series [1] relates to human neuroblastoma cells. Details: method as in PMID 9085193. To be noted: cited from earlier work.
A further series has as its system OCT2 A270S variant. The experiment in a line: in vitro. To be noted: human, Stereoselectivity OCT2_A270S, 100 μM racemic substance, two minutes; uptake ratio of enantiomers, given as for (S).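 Also: uptake into HEK293 cells stably overexpressing human OCT2 variants, intracellular enantiomers quantified by chiral HPLC-MS/MS and normalized to total protein.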
A further series deals with T1, OCT2 (wild-type) (Homo sapiens, UniProt O15244).
T1 sequence (O15244 1-555 S270A): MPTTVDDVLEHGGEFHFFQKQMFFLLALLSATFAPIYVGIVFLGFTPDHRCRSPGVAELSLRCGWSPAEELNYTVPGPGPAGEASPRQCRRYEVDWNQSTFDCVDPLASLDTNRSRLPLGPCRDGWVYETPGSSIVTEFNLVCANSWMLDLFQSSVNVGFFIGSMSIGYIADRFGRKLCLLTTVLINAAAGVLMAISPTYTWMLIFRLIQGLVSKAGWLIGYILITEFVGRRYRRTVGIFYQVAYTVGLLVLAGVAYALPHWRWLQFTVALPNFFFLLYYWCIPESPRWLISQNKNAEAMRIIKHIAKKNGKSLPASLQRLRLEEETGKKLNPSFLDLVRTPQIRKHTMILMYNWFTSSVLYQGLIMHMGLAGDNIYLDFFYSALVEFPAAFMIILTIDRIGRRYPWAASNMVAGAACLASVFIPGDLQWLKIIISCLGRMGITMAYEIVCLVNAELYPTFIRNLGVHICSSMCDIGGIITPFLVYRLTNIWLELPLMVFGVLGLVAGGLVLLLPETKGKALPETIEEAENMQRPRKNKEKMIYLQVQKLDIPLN
The series can be described thus: Stereoselective uptake into OCT2 (wild-type)-overexpressing HEK293 cells. To be noted: human, Stereoselectivity OCT2_WT, 100 μM racemic substance, two minutes; uptake ratio of enantiomers, given as for (S).

SMILES strings stand for the structures.

For the molecule `CC1NCCc2cc(O)c(O)cc21` (stereo not drawn) [Salsolinol], the “Cytotoxicity of (S)-enantiomer versus (R)-enantiomer” value in series [1] is “almost two-fold higher”. For the same molecule, the selectivity ratio at 2 min, 100 μM is 1.1 with OCT2 A270S variant and 1.06 at OCT2 (wild-type).

These data come from publication PMC9599461, “Stereoselectivity in the Membrane Transport of Phenylethylamine Derivatives by Human Monoamine Transporters and Organic Cation Transporters 1, 2, and 3” (Biomolecules, 2022).
